The term half-life denotes the time in which the quantity being followed falls by half.

One data set concerns the target T1, PTHR1 (Homo sapiens, UniProt Q03431).
T1 construct: host or cells: CHO-K1
T1 sequence (Q03431 27-593): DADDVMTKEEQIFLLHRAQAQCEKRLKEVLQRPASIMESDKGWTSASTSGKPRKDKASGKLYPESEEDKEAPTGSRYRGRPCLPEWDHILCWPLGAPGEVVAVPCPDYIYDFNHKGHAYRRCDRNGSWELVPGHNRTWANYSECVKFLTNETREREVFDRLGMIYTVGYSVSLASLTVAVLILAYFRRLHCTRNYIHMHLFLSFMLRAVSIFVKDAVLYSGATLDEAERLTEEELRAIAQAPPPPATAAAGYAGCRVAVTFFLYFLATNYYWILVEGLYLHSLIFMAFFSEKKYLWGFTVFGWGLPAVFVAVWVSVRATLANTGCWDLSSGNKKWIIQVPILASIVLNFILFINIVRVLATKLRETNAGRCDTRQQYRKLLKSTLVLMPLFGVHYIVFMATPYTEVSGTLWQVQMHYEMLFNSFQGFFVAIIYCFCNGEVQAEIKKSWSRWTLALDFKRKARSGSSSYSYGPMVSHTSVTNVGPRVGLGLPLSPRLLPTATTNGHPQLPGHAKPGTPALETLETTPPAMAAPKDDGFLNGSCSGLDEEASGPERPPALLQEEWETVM
Description: cAMP Hunter Teriparatide Bioassay (CHO-K1 PTHR1 cells). In kind it is cell-based.

Data set [1] can be described thus: Cleavage half-life / conversion of PTH prodrugs in PBS pH 7.4, 37° C. by LC-MS. In kind it is physicochemical. As for the experimental part:
The resulting solution was incubated at 37° C. Aliquots were taken at designed time points and analyzed by LC-MS. […] Flow rate of 1 mL/min and a gradient of 10%-80% acetonitrile in water, with 0.1% trifluoroacetic acid over 10 min. […] The concentration of prodrug and drug were determined by their relative peak areas. The […] dissociation rate constant of the prodrug was determined by plotting the logarithm in the concentration of the prodrug at various time points.

*1 amine or outer side, *2 acyl side, *3 side chain or, on linkers, in order; H or OH if unused. Where a SMILES comes first, the peptide text is derived from it. Side-chain parts run from the residue outwards. The star is where a group is joined. C18 diacid = O=C(O)CCCCCCCCCCCCCCCCC(=O)*; γGlu = O=C(O)[C@H](CCC(=O)[*:2])N[*:1]; AEEA = NCCOCCOCC(=O)O

Description for PTHR1: The assessment of the bioactivity of a prodrug relative to its drug form was conducted in a proprietary commercial assay as contracted with Eurofins-Discover Rx Corporation win a cAMP Hunter® Teriparatide Bioassay (95-0118Y2). An 11-point dose curve in agonist mode was conducted for each individual peptide or incubation condition. Every sample was run at each dose in triplicate.
An 11-point dose curve in agonist mode was conducted for each individual peptide or incubation condition. Every sample was run at each dose in triplicate.
An 11-point dose curve in agonist mode was conducted for each individual peptide at each concentration. Every sample was run at each dose in triplicate.

`CC[C@H](C)[C@H](NC(=O)[C@H](CCC(=O)O)NC(=O)[C@H](CO)NC(=O)[C@@H](NC(=O)[C@@H](N)CO)C(C)C)C(=O)N[C@@H](CCC(N)=O)C(=O)N[C@@H](CC(C)C)C(=O)N[C@@H](CCSC)C(=O)N[C@@H](Cc1c[nH]cn1)C(=O)N[C@@H](CC(=O)O)C(=O)N[C@@H](CC(C)C)C(=O)NCC(=O)N[C@@H](CCCCN)C(=O)N[C@@H](Cc1c[nH]cn1)C(=O)N[C@@H](CC(C)C)C(=O)N[C@@H](CC(N)=O)C(=O)N[C@@H](CO)C(=O)N[C@@H](CCSC)C(=O)N[C@@H](CCC(=O)O)C(=O)N[C@@H](CCCNC(=N)N)C(=O)N[C@H](C(=O)N[C@@H](CCC(=O)O)C(=O)N[C@@H](Cc1c[nH]c2ccccc12)C(=O)N[C@@H](CC(C)C)C(=O)N[C@@H](CCCNC(=N)N)C(=O)N[C@@H](CCCCN)C(=O)N[C@@H](CCCCN)C(=O)N[C@@H](CC(C)C)C(=O)N[C@@H](CCC(N)=O)C(=O)N[C@@H](CC(=O)O)C(=O)N[C@H](C(=O)N[C@@H](Cc1c[nH]cn1)C(=O)N[C@@H](CCCCNC(=O)CC[C@H](NC(=O)COCCOCCNC(=O)COCCOCCNC(=O)CC[C@H](NC(=O)CCCCCCCCCCCCCCCCC(=O)O)C(=O)O)C(=O)O)C(=O)O)C(C)C)C(C)C` [SEQ ID NO: 120] (H-SVSEIQLMHDLGKHLNSMERVEWLRKKLQDVHK([γGlu-AEEA-AEEA-γGlu-C18 diacid])-OH): at PTHR1 (FIG. 13A), the Hillslope is on record as 2.804 and the S/B is recorded as 10.
In the case of `CC[C@H](C)[C@H](NC(=O)[C@H](CCC(=O)O)NC(=O)[C@H](CO)NC(=O)[C@@H](NC(=O)[C@H](CO)NC(=O)CN(C)C(=O)[C@H](N)CCCCN)C(C)C)C(=O)N[C@@H](CCC(N)=O)C(=O)N[C@@H](CC(C)C)C(=O)N[C@@H](CCSC)C(=O)N[C@@H](Cc1c[nH]cn1)C(=O)N[C@@H](CC(N)=O)C(=O)N[C@@H](CC(C)C)C(=O)NCC(=O)N[C@@H](CCCCN)C(=O)N[C@@H](Cc1c[nH]cn1)C(=O)N[C@@H](CC(C)C)C(=O)N[C@@H](CC(N)=O)C(=O)N[C@@H](CO)C(=O)N[C@@H](CCSC)C(=O)N[C@@H](CCC(=O)O)C(=O)N[C@@H](CCCNC(=N)N)C(=O)N[C@H](C(=O)N[C@@H](CCC(=O)O)C(=O)N[C@@H](Cc1c[nH]c2ccccc12)C(=O)N[C@@H](CC(C)C)C(=O)N[C@@H](CCCNC(=N)N)C(=O)N[C@@H](CCCCN)C(=O)N[C@@H](CCCCN)C(=O)N[C@@H](CC(C)C)C(=O)N[C@@H](CCC(N)=O)C(=O)N[C@@H](CC(=O)O)C(=O)N[C@H](C(=O)N[C@@H](Cc1c[nH]cn1)C(=O)N[C@@H](CC(N)=O)C(=O)N[C@@H](Cc1ccccc1)C(=O)N[C@@H](CCCCNC(=O)CC[C@H](NC(=O)CCCCCCCCCCCCCCCCC(=O)O)C(=O)O)C(N)=O)C(C)C)C(C)C` [SEQ ID NO: 57], the half-life in data set [1] (PBS buffer, dipeptide cleavage from PTH prodrug, PBS pH 7.4, 37° C., read-out: Half life (converted)) was 49 h. Besides, the “Half life, fold faster (vs SEQ ID NO: 45)” value in data set [1] (comparator SEQ ID NO: 45) is on record as 1.8 faster without.
On PTHR1 (FIG. 13B), `CC[C@H](C)[C@H](NC(=O)[C@H](CCC(=O)O)NC(=O)[C@H](CO)NC(=O)[C@@H](NC(=O)[C@@H](N)CO)C(C)C)C(=O)N[C@@H](CCC(N)=O)C(=O)N[C@@H](CC(C)C)C(=O)N[C@@H](CCSC)C(=O)N[C@@H](Cc1c[nH]cn1)C(=O)N[C@@H](CC(N)=O)C(=O)N[C@@H](CC(C)C)C(=O)NCC(=O)N[C@@H](CCCCN)C(=O)N[C@@H](Cc1c[nH]cn1)C(=O)N[C@@H](CC(C)C)C(=O)N[C@@H](CC(=O)O)C(=O)N[C@@H](CO)C(=O)N[C@@H](CCSC)C(=O)N[C@@H](CCC(=O)O)C(=O)N[C@@H](CCCNC(=N)N)C(=O)N[C@H](C(=O)N[C@@H](CCC(=O)O)C(=O)N[C@@H](Cc1c[nH]c2ccccc12)C(=O)N[C@@H](CC(C)C)C(=O)N[C@@H](CCCNC(=N)N)C(=O)N[C@@H](CCCCN)C(=O)N[C@@H](CCCCN)C(=O)N[C@@H](CC(C)C)C(=O)N[C@@H](CCC(N)=O)C(=O)N[C@@H](CC(=O)O)C(=O)N[C@H](C(=O)N[C@@H](Cc1c[nH]cn1)C(=O)N[C@@H](CCCCNC(=O)CC[C@H](NC(=O)COCCOCCNC(=O)COCCOCCNC(=O)CC[C@H](NC(=O)CCCCCCCCCCCCCCCCC(=O)O)C(=O)O)C(=O)O)C(=O)O)C(C)C)C(C)C` [SEQ ID NO: 122] (H-SVSEIQLMHNLGKHLDSMERVEWLRKKLQDVHK([γGlu-AEEA-AEEA-γGlu-C18 diacid])-OH; N-terminus and C-terminus assumed) returned a Hillslope of 2.522 and a S/B of 8.2.
For the molecule `CC[C@H](C)[C@H](NC(=O)[C@H](CCC(=O)O)NC(=O)[C@H](CO)NC(=O)[C@@H](NC(=O)[C@@H](N)CO)C(C)C)C(=O)N[C@@H](CCC(=O)O)C(=O)N[C@@H](CC(C)C)C(=O)N[C@@H](CCSC)C(=O)N[C@@H](Cc1c[nH]cn1)C(=O)N[C@@H](CC(N)=O)C(=O)N[C@@H](CC(C)C)C(=O)NCC(=O)N[C@@H](CCCCN)C(=O)N[C@@H](Cc1c[nH]cn1)C(=O)N[C@@H](CC(C)C)C(=O)N[C@@H](CC(N)=O)C(=O)N[C@@H](CO)C(=O)N[C@@H](CCSC)C(=O)N[C@@H](CCC(=O)O)C(=O)N[C@@H](CCCNC(=N)N)C(=O)N[C@H](C(=O)N[C@@H](CCC(=O)O)C(=O)N[C@@H](Cc1c[nH]c2ccccc12)C(=O)N[C@@H](CC(C)C)C(=O)N[C@@H](CCCNC(=N)N)C(=O)N[C@@H](CCCCN)C(=O)N[C@@H](CCCCN)C(=O)N[C@@H](CC(C)C)C(=O)N[C@@H](CCC(N)=O)C(=O)N[C@@H](CC(=O)O)C(=O)N[C@H](C(=O)N[C@@H](Cc1c[nH]cn1)C(=O)N[C@@H](CCCCNC(=O)CC[C@H](NC(=O)COCCOCCNC(=O)COCCOCCNC(=O)CC[C@H](NC(=O)CCCCCCCCCCCCCCCCC(=O)O)C(=O)O)C(=O)O)C(=O)O)C(C)C)C(C)C` [SEQ ID NO: 118] (H-SVSEIELMHNLGKHLNSMERVEWLRKKLQDVHK([γGlu-AEEA-AEEA-γGlu-C18 diacid])-OH; N-terminus and C-terminus assumed), at PTHR1 (FIG. 13A), the Hillslope is on record as 1.648 and the S/B is 9.4.
Molecule “SEQ ID NO: 109: PTH analog site-specifically modified by oxidation to methionine sulfoxide (SVSEIQLXHNLGKHLNSMERVEWLRKKLQDVHX; SITE 8 MISC_FEATURE - Xaa at position 8 is Met wherein the side chain is oxidized to form a sulfoxide; SITE 33 MISC_FEATURE - Xaa at position 33 is Lys wherein the side chain is acylated with COC16H32CO2H via a gamma Glu-(MINIPEG)2-gamma Glu spacer; listed as Homo sapiens)” displayed a S/B with PTHR1 (FIG. 12) of 1.7.
On to `CC[C@H](C)[C@H](NC(=O)[C@H](CCC(=O)O)NC(=O)[C@H](CO)NC(=O)[C@@H](NC(=O)[C@@H](N)CO)C(C)C)C(=O)N[C@@H](CCC(N)=O)C(=O)N[C@@H](CC(C)C)C(=O)N[C@@H](CCSC)C(=O)N[C@@H](Cc1c[nH]cn1)C(=O)N[C@@H](CC(N)=O)C(=O)N[C@@H](CC(C)C)C(=O)NCC(=O)N[C@@H](CCCCN)C(=O)N[C@@H](Cc1c[nH]cn1)C(=O)N[C@@H](CC(C)C)C(=O)N[C@@H](CC(N)=O)C(=O)N[C@@H](CO)C(=O)N[C@@H](CCSC)C(=O)N[C@@H](CCC(=O)O)C(=O)N[C@@H](CCCNC(=N)N)C(=O)N[C@H](C(=O)N[C@@H](CCC(=O)O)C(=O)N[C@@H](Cc1c[nH]c2ccccc12)C(=O)N[C@@H](CC(C)C)C(=O)N[C@@H](CCCNC(=N)N)C(=O)N[C@@H](CCCCN)C(=O)N[C@@H](CCCCN)C(=O)N[C@@H](CC(C)C)C(=O)N[C@@H](CCC(=O)O)C(=O)N[C@@H](CC(=O)O)C(=O)N[C@H](C(=O)N[C@@H](Cc1c[nH]cn1)C(=O)N[C@@H](CCCCNC(=O)CC[C@H](NC(=O)COCCOCCNC(=O)COCCOCCNC(=O)CC[C@H](NC(=O)CCCCCCCCCCCCCCCCC(=O)O)C(=O)O)C(=O)O)C(=O)O)C(C)C)C(C)C` [SEQ ID NO: 124] (H-SVSEIQLMHNLGKHLNSMERVEWLRKKLEDVHK([γGlu-AEEA-AEEA-γGlu-C18 diacid])-OH; N-terminus and C-terminus assumed), for which, on PTHR1 (FIG. 13B), the Hillslope worked out at 1.797 and the S/B was 8.9.
For the molecule `CC[C@H](C)[C@H](NC(=O)[C@H](CCC(=O)O)NC(=O)[C@H](CO)NC(=O)[C@@H](NC(=O)[C@@H](N)CO)C(C)C)C(=O)N[C@@H](CCC(N)=O)C(=O)N[C@@H](CC(C)C)C(=O)N[C@@H](CCSC)C(=O)N[C@@H](Cc1c[nH]cn1)C(=O)N[C@@H](CC(N)=O)C(=O)N[C@@H](CC(C)C)C(=O)NCC(=O)N[C@@H](CCCCN)C(=O)N[C@@H](Cc1c[nH]cn1)C(=O)N[C@@H](CC(C)C)C(=O)N[C@@H](CC(N)=O)C(=O)N[C@@H](CO)C(=O)N[C@@H](CC[S+](C)[O-])C(=O)N[C@@H](CCC(=O)O)C(=O)N[C@@H](CCCNC(=N)N)C(=O)N[C@H](C(=O)N[C@@H](CCC(=O)O)C(=O)N[C@@H](Cc1c[nH]c2ccccc12)C(=O)N[C@@H](CC(C)C)C(=O)N[C@@H](CCCNC(=N)N)C(=O)N[C@@H](CCCCN)C(=O)N[C@@H](CCCCN)C(=O)N[C@@H](CC(C)C)C(=O)N[C@@H](CCC(N)=O)C(=O)N[C@@H](CC(=O)O)C(=O)N[C@H](C(=O)N[C@@H](Cc1c[nH]cn1)C(=O)N[C@@H](CCCCNC(=O)CC[C@H](NC(=O)COCCOCCNC(=O)COCCOCCNC(=O)CC[C@H](NC(=O)CCCCCCCCCCCCCCCCC(=O)O)C(=O)O)C(=O)O)C(=O)O)C(C)C)C(C)C` (stereo partly shown) [SEQ ID NO: 110], at PTHR1 (FIG. 12), the Hillslope amounted to 3.034 and the S/B amounted to 14.2.

These data come from patent publication US20260224716A1, “PTH ANALOGS FOR THE TREATMENT OF HYPOPARATHYROIDISM” (priority 2020, published 2026).
